Results taken from patent US20130231305A1, “Method of Modulating Protein 14-3-3 Functionality By Facilitating or Inhibiting Phosphorylation” (Medvet Science Pty. Ltd., priority 2010, published 2013).

Molecular target: T1, PKCδCat-HA (Homo sapiens, UniProt Q05655)
T1 construct: recreated exactly the N-terminus of the caspase-3 cleaved protein; additional initiator methionine (N); expressed in transfected cells; host or cells: COS cells, anti-HA immunoprecipitate
Assay: PKC kinase activity assay with Ser25 peptide substrate
Assay type: biochemical
Settings: 10 μM GF109203X
Procedure: FIG. 5 is an image depicting that DMS is required for phosphorylation of 14-3-3ζ by PKCδCat but not for activation of the kinase. COS cells were transfected with either an empty expression construct (Mock) or one encoding a HA-tagged truncated form of PKCδ corresponding to the caspase-3 cleaved protein (PKCδCat-HA). 20 hours after transfection the cells were lysed and PKCδCat-HA was immunoprecipitated using an anti-HA antibody. (A) PKC assays were carried out on the immunoprecipitates from mock (open bars) and PKCδCat-HA (shaded bars) expressing cells using Ser25 peptide as substrate with [^32P]γ-ATP in the presence or absence of 100 μM DMS (delivered in 0.1% ethanol) or 10 μM of GF109203X (GFX), the PKC inhibitor. The values represent means±S.E. of triplicate determinations. (B) PKCδCat-HA immunoprecipitates were incubated with recombinant 14-3-3ζ and [^32P]γ-ATP in the presence or absence of DMS or GF109203X (GFX). Phosphorylated 14-3-3 was detected by autoradiography after separation of SDS-PAGE (upper panel). The gel was also coomassie stained to show equal loading of 14-3-3 protein (lower panel). […]
Equal amounts of PKCδCat-HA immunoprecipitate were used to assay for PKC kinase activity, or to phosphorylate recombinant 14-3-3. […] Following incubation, reactions were separated on 12.5% SDS-PAGE, coomassie stained and 14-3-3 phosphorylation analysed by autoradiography.

T1 sequence (Q05655 330-676 limits assumed): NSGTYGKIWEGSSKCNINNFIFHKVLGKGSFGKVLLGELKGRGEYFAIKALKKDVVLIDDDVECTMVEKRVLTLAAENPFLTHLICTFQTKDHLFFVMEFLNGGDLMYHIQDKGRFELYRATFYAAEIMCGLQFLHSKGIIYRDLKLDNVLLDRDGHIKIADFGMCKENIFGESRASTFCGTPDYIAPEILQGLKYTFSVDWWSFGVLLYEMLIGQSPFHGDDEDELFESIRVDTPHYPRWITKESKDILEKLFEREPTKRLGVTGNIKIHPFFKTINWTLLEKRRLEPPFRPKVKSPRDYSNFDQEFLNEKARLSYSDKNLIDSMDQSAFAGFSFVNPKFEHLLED

Compound	effect on PKCδCat kinase activity
CN(C)CCCn1cc(C2=C(c3c[nH]c4ccccc34)C(=O)NC2=O)c2ccccc21 [GF109203X]	completely inhibited

Molecular target: T2, 14-3-3ζ (Homo sapiens, UniProt P63104)
T2 construct: made in house
T2 sequence (P63104 1-245): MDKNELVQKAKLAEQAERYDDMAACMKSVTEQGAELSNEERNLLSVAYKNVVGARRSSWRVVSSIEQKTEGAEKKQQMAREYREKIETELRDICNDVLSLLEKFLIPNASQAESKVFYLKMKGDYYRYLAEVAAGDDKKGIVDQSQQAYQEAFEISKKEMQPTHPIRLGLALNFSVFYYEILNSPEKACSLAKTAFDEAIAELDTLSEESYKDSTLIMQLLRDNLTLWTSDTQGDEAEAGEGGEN
Assay: 14-3-3 phosphorylation by PKA catalytic subunit (autoradiography)
Assay type: biochemical
Settings: TMA compounds at 125 μM or 62.5 μM in 0.1% ethanol; P81 scintillation counting or autoradiography

Compound	14-3-3 phosphorylation by PKA catalytic subunit
CCCCCCCCCCCCCC[N+](C)(C)C [C14]	capable of facilitating 14-3-3 phosphorylation
CCCCCCCCCCCCCCCC[N+](C)(C)C.[Br-] [C16, hexadecyl-trimethyl ammonium]	capable of facilitating 14-3-3 phosphorylation

Molecular target: T2, 14-3-3ζ
Assay: as above
Assay type: biochemical
Settings: 50 μM lipid delivered in 0.1% ethanol
Procedure: 14-3-3ζ (wild-type or S58A mutant) was incubated with the catalytic subunit of PKA in the presence (+) or absence (−) of 50 μM sphingosine (A) or DMS (B) delivered in 0.1% ethanol. Phosphorylated 14-3-3ζ was detected by autoradiography.
The assay was carried out by incubating 14-3-g (0.5 μg) with catalytic subunit of PKA (0.2 Units) with the indicated concentration of DMS delivered in 0.1% ethanol. Reactions were separated on SDS-PAGE and phosphorylated protein detected by autoradiography. […] (B) 14-3-3ζ was incubated with the catalytic subunit of PKA and 50 μM D-erythro-sphingosine (Sph), D-erythro-trimethyl-sphingosine (TMS), D-erythro-dihydro-sphingosine (DHS), phyto-sphingosine (PSph), D-erythro-sphingosine-1-phosphate (SIP), C2-ceramide (C2-Cer), sphingomyelin (SM), spermine (Sper) or linoleic acid (LA), all delivered in 0.1% ethanol. Phosphorylated 14-3-3ζ was detected by autoradiography.
Substrate 14-3-3 (either 0.5 μg of purified recombinant 14-3-3, a […] of fractions from gel filtration or immunoprecipitates from 14-3-3ζ-Myc transfected COS cells) were added to reaction mixture comprising 0.2 Units of the PKA catalytic subunit, in the presences or absence of sphingolipid (delivered in 0.1% v/v ethanol) in PICA reaction buffer (20 mM MOPS, pH 7.4, 20 mM β-glycerol phosphate, 4 mM EGTA, 1 mM Na3VO4, 60 mM MgCl2, 1 mM DTT, 500 μM ATP, 2.4 μCi [^32P]γ-ATP). Reactions were incubated at 37° C. for 15 minutes. After incubation, reactions were separated on 12.5% SDS-PAGE, coomassie stained and 14-3-3 phosphorylation analysed by autoradiography.

phosphorylation of 14-3-3ζ on Ser58 by PKA catalytic subunit	Compound
did not support the phosphorylation	CCCCCCCCCCCCC/C=C/[C@@H](O)[C@@H](N)COP(=O)(O)O [sphingosine-1-phosphate, D-erythro-sphingosine-1-phosphate]
did not support the phosphorylation	CCCCC/C=C\C/C=C\CCCCCCCC(=O)O [linoleic acid]
allowed phosphorylation	CCCCCCCCCCCCCC[C@@H](O)[C@@H](O)[C@@H](N)CO [phyto-sphingosine]
allowed phosphorylation	CCCCCCCCCCCCC/C=C/[C@@H](O)[C@H](CO)[N+](C)(C)C [trimethyl-sphingosine, D-erythro-trimethyl-sphingosine]
did not support the phosphorylation	NCCCNCCCCNCCCN [spermide, spermine]
did not support the phosphorylation	CCCCCCCCCCCCC/C=C/[C@@H](O)[C@H](COP(=O)([O-])OCC[N+](C)(C)C)NC(=O)CCCCCCCCCCCCCCCCC [sphingomyelin]

More lines, now with the values behind:

Compound	phosphorylation of 14-3-3ζ on Ser58 by PKA catalytic subunit
CCCCCCCCCCCCC/C=C/[C@@H](O)[C@H](CO)NC(C)=O [ceramide, C2-ceramide]	did not support the phosphorylation
CCCCCCCCCCCCCCC[C@@H](O)[C@@H](N)CO [dihydro-sphingosine, D-erythro-dihydro-sphingosine]	allowed phosphorylation

System: Jurkat cells
Assay: Jurkat cell apoptosis (TMRE staining, NucView caspase activity)
Assay type: cell-based
Settings: TMAs, 16 hours incubation
From the text: (A) Immunoblotting of lysates from either parental Jurkat cells (Jurkat) or cells transduced with lentivirus encoding either wild type (Wt) or S58A 14-3-3ζ-Myc with either an anti-14-3-3ζ specific antibody (upper panel) or an anti-pan 14-3-3 antibody (middle panel) to compare the expression level of transduced protein. Myc immunoprecipitates were also immunoblotted with an anti-phospho 14-3-3 binding site antibody (lower panel) to detect proteins associated with 14-3-3ζ-Myc. Endogenous 14-3-3 is indicated by an open arrow and exogenous 14-3-3ζ-Myc with a closed arrow. (B) Lysates from either wild type (Wt) or S58A 14-3-3ζ-Myc expressing Jutkat cells were subjected to in vitro PKA phosphorylation in the presence (+) or absence (−) of […] and the samples immunoblotted after SDS-PAGE separation With either anti-Myc antibody (upper panel), anti-14-3-3ζ antibody (middle panel) or anti-phospho Ser58 14-3-3ζ antibody (lower panel). (C) Serum-starved Jurkat cells were treated with 2 μM FTY720 for 4 h prior to staining with TMRE and NucView™. Forward- versus side-scatter plots (FS versus SS) show the viable cell populations for FTY720 and EtOH (vehicle) treated cells which are analysed in the lower histograms for caspase activity (NucView™) versus ΔΨM (TMRE). (D and E) Jurkat cell lines expressing either wild type or S58A 14-3-3ζ-Myc by lentiviral transduction were serum-starved for 2 h and treated with either 0.1% ethanol vehicle alone (EtOH), 2 μM dimethyl-sphingosine (DMS), or 2 μM FTY720. Cells were analysed by TMRE staining at 4 h (D) or at the time points indicated (E). (D) Representative analyses of TMRE staining with forward- versus side-scatter plots inset to show the similarity in cell populations. (E) Graphical representation of TMRE analysis over time with open symbols representing vehicle (0.1% EtOH) treated cells and closed symbols representing FTY720 treated cells. […]
FIG. 11. […] Effect of TMAs on Jurkat cells after 16 hours incubation assessed by ΔΨM (TMRE) and caspase 3 activity (NucView™) analysis. […] Forward-side-scatter histograms showing cell viability are inset and caspase 3 activity as assessed by NucView™ analysis of viable cells shown. E. Examples of TMA-derivatives of FTY720 that will be analysed for effects on 14-3-3 dimer stability and apoptosis.
Having confirmed appropriate expression and behaviour of Myc-tagged wild type and S58A 14-3-3ζ in the Jurkat lines, these cells were utilised in functional studies to determine the effect of S58A 14-3-3ζ expression on cell survival in response to sphingosine analogues. […] Intriguingly, Jurkat cells expressing S58A 14-3-3ζ-Myc consistently underwent commitment to apoptosis (as detected by the loss of TMRE staining) more slowly than those expressing wild type 14-3-3ζ-Myc (FIG. 8D).

Compound	apoptosis of Jurkat cells (ΔΨM by TMRE, caspase 3 by NucView)
CCCCCCCCCCCCCCCC[N+](C)(C)C.[Br-] [CTAB]	apoptosis induced by CTAB
